# In US20100069343A1, “Methods of predicting steroid responsiveness with Il-1RII” (priority 2008, published 2010):
# Where “and” joins values, the source holds several entries; their conditions need not be identical. Equal values may be shown once.
# Key:
# TNF-α = details: animal studies, inner ear; cited from earlier work
# patients with AIED = experiment: Prednisone treatment of AIED patients with sudden hearing decline, pre/post-treatment audiograms; assay type: in vivo, human; details: for AVG Improve: 60 mg prednisone daily 7 days then taper
# Procedure: FIG. 5A. 10 patients with presumptive AIED and sudden declines in hearing were enrolled, blood samples were taken and then the patients were treated with 60 mg prednisone/day×7 days and then tapered. Post-treatment audiograms were obtained between 7-14 days later. Improvement (Δ) was measured as the average of 500, 1, 2, 4 & 8 kHz. […] The patient that improved 13.3 dB represented a patient that returned to normal hearing thresholds. PBMC were isolated, divided and cultured for 16 hours with either 0 μg/ml or increasing concentrations of dexamethasone (8, 20, 40 or 80 μg/ml). Fold changes in levels of mIL-1RII by Q-RT-PCR after in vitro challenge with dexamethasone (expressed as fold change over baseline) predicted steroid responsiveness in AIED. In data on 7 subjects, the fold-increase was log-transformed in order to better meet the assumptions of a normal distribution with equal variance.
# Prospectively Enrolled, Steroid Treated Subjects. Ten patients with AIED who had not undergone cochlear implantation were studied in a separate IRB approved protocol. […] The responders were defined as a 10 dB or greater average improvement at 250, 500, 1000, 2000, 4000 and 8000 Hz. […] Furthermore, SNHL of greater than 30 dB at one or more frequencies in both ears with evidence of active deterioration (elevated threshold) in at least one ear of 15 dB at one frequency (excluding 250 or 8 kHz as a sole indicator), or 10 dB at 2+ frequencies developing in >3 days but <90 days (Niparko et al. 2005, Yeom et al. 2003). If the hearing loss evolved in less than 3 days, prior similar hearing declines must have occurred or the patient must have a systemic autoimmune disorder AND the patient must meet the audiology criteria outlined above. All patients with retrocochlear (vestibular schwannoma or other internal auditory canal s) pathology), patients who received prednisone or other immunosuppressive therapy within 3 months, or patients with vestibular symptoms coinciding with periods of hearing fluctuation were all excluded from this study. All patients received a minimum of 60 mg of prednisone daily for 7 days with a variable taper thereafter.
# 60% of patients studied by the AIED study group were steroid responsive (Niparko et al. 2005). In the present study, in vitro PBMC membrane-bound IL-IRII (mIL-1RII) mRNA expression in response to dexamethasone stimulation was compared to basal mIL-1RII expression in cultures of PBMCs collected prior to clinical steroid treatment. In addition, pre-treatment mIL-1RII expression was compared to post-treatment hearing recovery. Furthermore, pre- and post-treatment mIL-1RII expression were compared in a subset of clinical responders and non-responders. […] All responders returned to their prior baseline hearing thresholds at the end of the corticosteroid treatment. Non-responders were defined as less than 5 dB improvement at the same frequencies or further decline of pure tone thresholds. […] Of note, the dramatic difference in fold change of the corticosteroid responders is inversely proportional to basal mIL-1RII expression in PBMC (45 cycles, S.D. 0.0 in replicate samples) in an unstimulated condition, compared to corticosteroid non-responders (28.48 cycles, S.D.±3.34) (FIG. 5B, p<0.0001). In all patient samples, the unstimulated condition is the average of 2 independent cultured PBMC samples. Furthermore, post-steroid therapy mIL-1RII expression was determined in a subset of patients.
# mIL-1RII = experiment: Pre- and post-steroid therapy mIL-1RII expression in PBMC by Q-RT-PCR; assay type: in vivo, human; details: subset
# Procedure: FIG. 5B. Pre- and post-treatment mIL-1RII levels in a subset of clinical responders and non-responders. Responders have essentially zero basal mIL-1RII expression, compared with non-responders that have substantially higher basal levels.
# Q-RT-PCR. Quantitative Real Time RT-PCR (Q-RT-PCR) was performed on PBMC from patients using TaqMan chemistry. The relative abundance of IL1R2 mRNA for 2 membrane bound (mIL-1RII) and the soluble (sIL-1RII) coding regions associated with the 2 Affymetrix probes sets 211372 (sIL-1RII) and 205403 (mIL-1RID compared to β-actin was determined using the Eurogentec RTqPCR mastermix (Eurogentec, Belgium) and ABI PRISM 7700 Sequence Detection System. Membrane bound IL-1RII, as reflected by Affymetrix probe set 205403 was detected by primers nt 1239-1258, 1295-1314, and taqman probe 1271-1278, whereas the shorter soluble form (sIL-1RII) reflected by the Affymetrix probe 211372 and primers nt 790-830-849, and taqman probe 820-827. […] Data was analyzed using Sequence Detection System software version 1.9.1. Results were expressed as Ct (Threshold cycle) values, which is inversely proportional to the starting template copy number. Relative abundance of IL1R2 in […] cells was calculated compared to untreated control samples using delta delta Ct method (User Bulletin #2, Applied Biosystems Inc). […]
# [1] = compared to placebo; cited from earlier work
# IL-1RA, IL-1β = details: experimentally; cited from earlier work
molecule,measurement,setting,value
Etanercept,TNF-α release after administration of antigen,TNF-α,can be reversed
C[C@]12C=CC(=O)C=C1CC[C@@H]1[C@@H]2C(=O)C[C@@]2(C)[C@H]1CC[C@]2(O)C(=O)CO [prednisone],hearing outcome of responders,"patients with AIED; Responders (R), post-treatment audiograms 7-14 days later",returned to prior baseline hearing
same,AVG Improve,patients with AIED; patient 39WM (R3),13.3 dB and 13 dB
same,AVG Improve,patients with AIED; patient 42 (NR2),0 dB
same,AVG Improve,"patients with AIED; patient 45WM (NR 5), (NS)",1 dB
same,AVG Improve,patients with AIED; patient 54 (R2),33 dB
same,AVG Improve,patients with AIED; patient 56 (R1),38 dB
same,AVG Improve,patients with AIED; patient 56WM (NR1),0 dB
same,AVG Improve,patients with AIED; patient 57 (NR4),0 dB
same,AVG Improve,"patients with AIED; patient 60WF (NR7), (NS)",4 dB
same,AVG Improve,patients with AIED; patient 61HF (NR3),0 dB
same,AVG Improve,patients with AIED; patient 62 (NR6),0dB
same,mIL-1RII expression detected post-treatment,"mIL-1RII; clinical non-responders, pre-treatment 30 cycles",27 cycles
same,mIL-1RII expression detected post-treatment,"mIL-1RII; clinical responders, pre-treatment no expression at 45 cycles",30 cycles
CN(Cc1cnc2nc(N)nc(N)c2n1)c1ccc(C(=O)N[C@@H](CCC(=O)O)C(=O)O)cc1 [methotrexate],maintenance of hearing,[1],could not maintain hearing
same,IL-1RA release,"IL-1RA, IL-1β",stimulates IL-1RA release
same,IL-1β synthesis,"IL-1RA, IL-1β",inhibits IL-1β synthesis
